Measured values taken from US20220226338A1, “Methods of Treating Cancer Using CHK1 Inhibitors” (Sierra Oncology, Inc., priority 2019, published 2022).
Read-outs that look alike come from different tables or passages of the source.

Columns and labels:
Single dose PK, mouse = assay type: in vivo; details: Mouse oral 10 mg/kg single dose
Source text: (§1) Several studies have been conducted to evaluate the PK properties of SRA737, such as the absorption (in vitro permeability assays and in vivo PK following IV and oral administration), distribution (in vivo tissue distribution and in vitro plasma protein binding) and metabolism (in vitro hepatocyte and CYP inhibition and induction studies) of SRA737.
(§2) The PK of SRA737 have been determined in the mouse, rat, dog and monkey following oral and IV administration (Table 3). […] An acceptable terminal elimination t1/2 was also observed in each species. […] The plasma protein binding of SRA737 at 1 and 10 μM was examined in mouse, minipig, monkey and human plasma using ultracentrifugation and in dog plasma (10 μM) using rapid equilibrium dialysis.

[1] = SRA737 monotherapy clinical study (SRA737-01), safety and tolerability; assay type: in vivo
Description: A Phase 1 clinical trial was conducted in ‘all comers,’ i.e. no genetic selection was performed, to establish safety, tolerability and pharmacokinetics (“Dose Escalation Phase”). Cohorts consisting initially of a single subject received escalating doses of SRA737, starting in Cohort 1 with 20 mg/day administered orally on a continuous daily dosing schedule in 28 day cycles. the dose was escalated until the maximum tolerated dose (MTD) was identified.
In the Dose Escalation Phase, 18 subjects received SRA737 in 9 dose level cohorts, from 20 to 1300 mg QD; median treatment duration 62.5 days (range 1 to 226). […] Two of 3 subjects experienced DLTs at the 1300 mg once daily dose, each being an inability to receive 75% of the planned SRA737 dose due to GI intolerability, with the individual GI effects being low grade. […] A cohort receiving 500 mg twice daily was added to determine if a twice daily dosing schedule can improve GI tolerability, given the half-life of SRA737 is approximately 10 hours. One of 6 subjects experienced DLTs in the 500 mg twice daily cohort; this was an inability to receive 75% of the planned SRA737 dose due to grade 4 thrombocytopenia with grade 3 neutropenia and anemia.
A Dose Escalation phase employed an accelerated titration design starting at 20 mg SRA737, administered QD orally in 28-day cycles. Incremental dose escalations in single-subject cohorts were followed by a rolling-6 design once SRA737-related ≥Grade 2 toxicity was observed during Cycle 1.
Dose limiting toxicities (DLTs) were assessed following a pharmacokinetic (PK) lead-in dose, and throughout Cycle 1 of treatment, and were defined as adverse events highly probably or probably related to SRA737: grade ≥4 neutropenia or thrombocytopenia lasting >7 days, grade ≥3 febrile neutropenia or thrombocytopenia with bleeding, grade ≥3 non-hematologic toxicity, or the inability to receive ≥75% of the planned SRA737 dose in Cycle 1 due to drug-related toxicity.

[2] = Excretion in urine and feces, mice; assay type: in vivo; details: 24-hour collection
Description: The excretion of SRA737 has been studied in mice and rats administered SRA737 at either 5 mg/kg IV or 10 mg/kg orally. Urine and feces were collected for a 24-hour period after dosing. In mice, renal excretion of intact SRA737 was consistently low (less than 10% of dose) after both oral and IV administration. Following IV administration of SRA737, less than 8% of the dose was recovered as intact drug in the feces while after oral administration this figure was less than 3%. Excretion of intact SRA737 was lower in the rat than in the mouse with <1% of dose excreted renally over 24 hours and less than 1.5% of dose excreted into the feces over 24 hours.

[3] = mouse, in vivo
Description: (§3) Reference source not found.6.
(§4) These findings were reversible on cessation of drug administration.
(§5) The MTD was 75 mg/kg/day (225 mg/m^2/day) in the mouse and the HNSTD was […] (350 mg/m^2/day) in the minipig.

Single dose PK, monkey = assay type: in vivo
Source text: as §1, §2

plasma protein [4] = test: Plasma protein binding, rapid equilibrium dialysis, dog plasma; assay type: in vitro ADME; details: 10 μM
Description: as §2

[5] = GLP 28-day repeat oral dose toxicity and toxicokinetics, minipig; assay type: in vivo
Description: as §3, §4, §5

CYP1A2 = test: CYP induction in vitro; assay type: in vitro ADME; details: positive control omeprazole, minimal, concentration dependent
[6] = system: cryopreserved hepatocytes; test: Stability in cryopreserved rat hepatocytes; assay type: in vitro ADME; details: 10 μM, after 4 hours of incubation
Description: (§6) The formation of SRA737-related metabolites was determined in cryopreserved hepatocytes from human, mouse, rat, dog, minipig and monkey samples after incubation with SRA737 at a nominal concentration of 10 μM for up to 4 hours. […] In the human hepatocyte preparation, approximately 67% of the parent remained after 4 hours of incubation compared to 75% and 7% in the rat and minipig preparations, respectively. Eight human SRA737 metabolites were observed. All SRA737 metabolites formed by human hepatocytes were also formed by monkey hepatocytes. Six metabolites were present at equal or greater abundance in the monkey.

plasma protein [7] = test: Plasma protein binding, ultracentrifugation, minipig plasma; assay type: in vitro ADME
Description: as §2

[8] = system: cryopreserved hepatocytes; test: Stability in cryopreserved minipig hepatocytes; assay type: in vitro ADME; details: 10 μM, after 4 hours of incubation
Description: as §6

[9] = system: cryopreserved hepatocytes; test: Stability and metabolites in cryopreserved human hepatocytes; assay type: in vitro ADME
Description: as §6

Question: For `N#Cc1cnc(Nc2cc(NCC3CNCCO3)c(C(F)(F)F)cn2)cn1` (centres unmarked) [SRA737, 5-[[4-[[morpholin-2-yl]methylamino]-5-(trifluoromethyl)-2-pyridyl]amino]pyrazine-2-carbonitrile], which Foral (Single dose PK, mouse) is on record?
Answer: 105%

Question: And the AST increased ([1]; human, in vivo)?
Answer: 3%

Question: And the “TEAEs mild to moderate in severity (Grade 1/Grade 2)” value ([1]; human, in vivo)?
Answer: 90%

Question: And the abdominal pain ([1]; human, in vivo)?
Answer: 3%

Question: What about the abdominal pain upper ([1]; human, in vivo) of the same compound?
Answer: 3%

Question: What about the “diarrhea, most common TEAEs” value ([1]; human, in vivo) of the same compound?
Answer: 68%

Question: What about the disease progression ([1]; human, in vivo) of the same compound?
Answer: 8%

Question: What about the “dose-limiting toxicities (DLTs)” value ([1]; human, in vivo) of the same compound?
Answer: without any dose-limiting toxicities

Question: What about the dyspnea ([1]; human, in vivo) of the same compound?
Answer: 3%

Question: What about the “emergent or cumulative toxicity and/or declining tolerability” value ([1]; human, in vivo) of the same compound?
Answer: No evidence of emergent or cumulative toxicity and/or declining tolerability

Question: And the fatigue ([1]; human, in vivo)?
Answer: 3%

Question: And the “fatigue, most common TEAEs” value ([1]; human, in vivo)?
Answer: 47%

Question: What about the hyponatremia ([1]; human, in vivo) of the same compound?
Answer: 4%

Question: And the infection ([1]; human, in vivo)?
Answer: 4%

Question: What about the lymphocyte count decreased ([1]; human, in vivo) of the same compound?
Answer: 5%

Question: And the nausea ([1]; human, in vivo)?
Answer: 3%

Question: And the “nausea, most common TEAEs” value ([1]; human, in vivo)?
Answer: 66%

Question: What about the neutropenia ([1]; human, in vivo) of the same compound?
Answer: 8%

Question: And the pleural effusion ([1]; human, in vivo)?
Answer: 3%

Question: And the rash maculo-papular ([1]; human, in vivo)?
Answer: 3%

Question: What about the recommended monotherapy dose ([1]; human, in vivo) of the same compound?
Answer: 800 mg/day

Question: And the “subjects with at least one SRA737-related event” value ([1]; human, in vivo)?
Answer: 91%

Question: And the “tolerability of 800 mg once daily” value ([1]; human, in vivo)?
Answer: overall better tolerated than 1000 mg

Question: And the “vomiting, most common TEAEs” value ([1]; human, in vivo)?
Answer: 51%

Question: What about the “subjects experiencing DLTs” value ([1]; human, in vivo, 28 days) of the same compound?
Answer: 3 subjects

Question: And the “maximum tolerated dose (MTD)” value ([1]; monotherapy)?
Answer: 1000 mg/day

Question: And the “recommended dose for expansion cohorts (RP2D)” value ([1]; monotherapy)?
Answer: 800 mg QD

Question: What about the “relatedness of Grade 5 TEAEs” value ([1]; monotherapy) of the same compound?
Answer: none were considered related to SRA737

Question: And the “subjects with treatment-emergent adverse events (TEAEs)” value ([1]; monotherapy)?
Answer: 106 (99%) n (%)

Question: What about the “maximum tolerated dose (MTD)” value ([1]; monotherapy, once daily) of the same compound?
Answer: 1000 mg QD

Question: What about the “maximum tolerated dose (MTD)” value ([1]; monotherapy, twice daily) of the same compound?
Answer: 500 mg BID

Question: What about the “number of Grade 5 TEAEs” value ([1]; monotherapy, up to 30-days post last treatment) of the same compound?
Answer: Six

Question: What about the “renal excretion of intact SRA737” value ([2]; 5 mg/kg IV or 10 mg/kg oral) of the same compound?
Answer: less than 10 % of dose

Question: What about the “intact drug recovered in the feces” value ([2]; IV administration) of the same compound?
Answer: less than 8 % of dose

Question: And the “intact drug recovered in the feces” value ([2]; oral administration)?
Answer: less than 3 % of dose

Question: What about the “changes in reproductive organs” value [3] of the same compound?
Answer: changes in reproductive organs, particularly the testes, were also observed

Question: What about the dose-dependent toxicological findings [3] of the same compound?
Answer: bone marrow toxicity

Question: And the Foral (Single dose PK, monkey; Monkey oral 2 mg/kg single dose)?
Answer: 90%

Question: And the Foral (Single dose PK, monkey; Monkey oral 10 mg/kg single dose)?
Answer: 104%

Question: What about the “Percentage Bound” value (plasma protein [4]) of the same compound?
Answer: 68.8%

Question: And the “Percentage Free” value (plasma protein [4])?
Answer: 31.2%

Question: And the “changes in reproductive organs” value ([5]; minipig)?
Answer: changes in reproductive organs, particularly the testes, were also observed

Question: What about the “toxicological findings in the GI tract” value ([5]; minipig) of the same compound?
Answer: Toxicological findings in the GI tract were also observed

Question: What about the dose-dependent toxicological findings ([5]; minipig pivotal study, reversible on cessation of drug administration) of the same compound?
Answer: bone marrow toxicity

Question: And the “induction of CYP1A2” value (CYP1A2)?
Answer: < 10 % positive control

Question: What about the parent remaining [6] of the same compound?
Answer: 75%

Question: What about the “Percentage Bound” value (plasma protein [7]; 1 μM) of the same compound?
Answer: 85.2%

Question: What about the “Percentage Free” value (plasma protein [7]; 1 μM) of the same compound?
Answer: 14.9%

Question: And the “Percentage Bound” value (plasma protein [7]; 10 μM)?
Answer: 75.5%

Question: And the “Percentage Free” value (plasma protein [7]; 10 μM)?
Answer: 24.5%

Question: What about the parent remaining [8] of the same compound?
Answer: 7%

Question: What about the “number of human SRA737 metabolites observed” value [9] of the same compound?
Answer: Eight

Question: What about the parent remaining ([9]; 10 μM, after 4 hours of incubation) of the same compound?
Answer: approximately 67%
